Source: patent publication US20220305025A1, “PHOSPHATIDYLSERINE BINDING MOLECULES BLOCK IMMUNE SUPPRESSION OF TUMOR ASSOCIATED EXOSOMES” (priority 2019, published 2022)
Entries after “also recorded” stand apart in the source; their conditions may differ. Where two headings read alike, the source gives them in different places.

Tests used:
[1] = Systemic organ toxicity study in mice; conditions: dose 64 mg/kg
From the text: (§1) Mice were euthanized 14 days after treatment with the drugs.

DM6-Mut cells = assay: Direct effect on tumor target cells in vitro; type: cell-based, human; conditions: at the doses used
[2] = mouse, in vivo, 64 mg/kg
From the text: as §1

[3] = test system: apoptotic cells (Jurkat cells); conditions: Jurkat cells treated with 10 μM Etoposide for 20 h; equimolar or titrating amounts
Protocol: Jurkat cells were treated with 10 μM Etoposide for 20 h to induce apoptosis. The cells were then stained with PSVue with equimolar or titrating molar amounts of ExoBlock. Sytox Red was used to eliminate dead cells from the analysis. The experiment was done in triplicate wells.

DM6-Mut tumor xenografts = conditions: for tumor escape / tumor growth: NSG mice bearing DM6-Mut xenografts treated with TKT cells, ExoBlock 64 mg/kg i.p., nivolumab 10 mg/kg
From the text: (A) Experimental scheme and timeline (B-C) Tumor burdens on respective days in the X-mouse model in anti-PD-1 experiment (B) or the IL-12 experiment (C).
The X mouse model was established to allow for the rapid generation of human tumors and an in vivo method of evaluation of the anti-tumor responses of patient-derived T cells to patient tumor-specific peptides expressed by the established tumors.
There are 7 different T cells derived for 3 different patients available for our studies (Table 1). […] The melanoma tumor target cells (DM6) are either transduced with a tandem mini-gene expressing GFP or with luciferase and each are genetically modified to express either the mutated peptide (DM6-Mut), tumor target or the wild type peptide (DM6-WT) control target. Tumor growth in the X mouse model is monitored either by post-mortem quantification of GFP fluorescence in the omentum or by quantification of luciferase-dependent bioluminescence of the mice by live imaging.
The X-mouse model was used to test the efficacy of ExoBlock. ExoBlock was injected i.p. into NSG mice bearing DM6-Mut tumor xenografts and treated with TKT cells.

[4] = test system: tumor associated exosomes / T cells; assay: Reversal of exosome-mediated arrest of T cell activation (CD3/CD28-activated PBL with exosomes)
Protocol: PBL were either unactivated (Unt) or activated for 2 h (hours) with immobilized antibodies to CD3 and CD28 with exosomes (Exo), exosomes with Zn-T-DPA and Exoblock (Exo+Zn-T-DPA and Exo+ExoBlock) or without (No Exo) exosomes. NFκB expression was detected using confocal microscopy.
T cells from normal donor peripheral blood leukocytes (NDPBL) were activated for 2 h with immobilized antibodies to CD3 and CD28 in the presence or absence of exosomes and 10 μM ExoBlock. The percentage of activation was determined by monitoring the upregulation of CD69. Percentage of inhibition and reversal were calculated.

Substance | systemic organ toxicity (NOAEL) [1] | direct killing / suppression of tumor target cells (DM6-Mut cells) | avidity of PS binding (PS binding avidity) | histopathology of organs [2] | competitive inhibition of PSVue 499 binding [3] | tumor escape / tumor growth (DM6-Mut tumor xenografts) | change in tumor burden (DM6-Mut tumor xenografts; day 25, 64 mg/kg i.p.) | interference with anti-tumor responses of tumor-specific T cells (DM6-Mut tumor xenografts; mouse model) | toxicities in pre-clinical efficacy studies (DM6-Mut tumor xenografts; mouse model) | batch consistency of reversal of immunosuppressive effect of exosomes ([4]; 10 μM ExoBlock, CD69 upregulation, NDPBL T cells) | blocking exosomal immune suppression in vitro ([4]; PBL activated 2 h with immobilized antibodies to CD3 and CD28 with exosomes) | reversal of the exosome-mediated arrest of T cell function ([4]; comparative studies, FIG. 2A-C) | tumor escape / tumor growth (DM6-Mut tumor xenografts; listed as anti-PD-1)
(ZnDPA)6-DP-15K [ExoBlock] | NOAEL was observed | does not directly kill the tumor target cells; also recorded: no direct suppressive effect | bind PS with a high avidity; also recorded: greater avidity to PS as compared to Zn-T-DPA | No pathology was observed | competitively inhibits binding of PSVue 499 to apoptotic cells in a dose-dependent manner | significantly delayed tumor escape; also recorded: suppresses tumor growth and has comparable efficacy to anti-PD1 treatment | two-fold change in tumor burden | does not interfere with the anti-tumor responses of the tumor-specific T cells | no detectable toxicities | consistent in their ability to reverse immunosuppressive effect of exosomes | more effective than both anti-PS antibody and annexin V; also recorded: inhibits exosome-mediated arrest of T cell activation | 75-96% | 
nivolumab [reference compound] |  |  |  |  |  | enhanced the tumor suppression and delayed, but did not prevent tumor recurrence |  |  |  |  |  |  | delay tumor escape
